Experimental data published in ChEMBL document CHEMBL3301361, “Experimental in vitro DMPK and physicochemical data on a set of publicly disclosed compounds”.
Residues, ends and D or L forms follow the SMILES beside them.

Tests used:
in vitro = conditions: human, plasma
physchem = conditions: octan-1-ol/water

Compound | fraction unbound at 5 h (in vitro; PPB) | logD (physchem; pH 7.4, LogD7.4) | fraction unbound at 5 h (in vitro) | logD (physchem; pH 7.4)
CN1CCN(C(=O)c2cccc(Cc3n[nH]c(=O)c4ccccc34)c2)CC1 | 0.349 | 0.92 |  | 
CN[C@@H](C)C(=O)N[C@H](C(=O)N[C@H]1CCCN(CCc2ccc(C(F)(F)F)cc2)C1)C(C)(C)C | 0.0928 | 2.85 |  | 
O=C(CCS(=O)(=O)c1ccc(Br)cc1)NCc1ccc(F)cc1 | 0.0428 | 3.1 |  | 
CC[C@H](c1ccc(C(=O)O)c(Oc2cccc(Cl)c2)c1)N1CCC[C@H](n2cc(C)c(=O)[nH]c2=O)C1 | 0.0179 | 0.22 |  | 
CCOC(=O)c1ncn2c1CN(C)C(=O)c1cc(F)ccc1-2 [FLUMAZENIL] |  |  | 0.443 | 1.1
Cc1cn([C@H]2CCCN(Cc3ccc(C(=O)O)c(Oc4cccc(C(F)(F)F)c4)c3)C2)c(=O)[nH]c1=O | 0.0293 | -0.38 |  | 
CN[C@@H](C)C(=O)N[C@H](C(=O)N[C@H]1CCN(C(=O)Cc2ccccc2)C1)C1CCCCC1 | 0.671 | 0.81 |  | 
Cc1cn([C@H]2CCCN(S(=O)(=O)c3ccc(O)c(Oc4ccccc4)c3)C2)c(=O)[nH]c1=O | 0.062 | 1.49 |  | 
COc1cc2nc(N3CCN(C(=O)C4CCCO4)CC3)nc(N)c2cc1OC (configuration not stated) [TERAZOSIN] | 0.204 | 0.9 |  | 
Cc1c(Sc2ccc(Cl)cc2)c2cc(S(C)(=O)=O)ccc2n1CC(=O)O | 0.0127 | 0.54 |  | 
CC(=O)Nc1cnc2ccn(-c3cc(NC4CC4)n4ncc(C#N)c4n3)c2c1 | 0.0251 | 2.69 |  | 
COc1cc(OC)c(S(=O)(=O)N(c2ccccc2)C(C)C)cc1NC(C)=O | 0.005 | 1.6 |  | 
COCCOc1cc2ncc(C(N)=O)c(Nc3ccc(C)cc3F)c2cc1N1CCN(C)CC1 | 0.151 | 2.24 |  | 
COc1ccc2c(c1)N(CCN1CCC(NCc3cc4c(cn3)OCCO4)CC1)C(=O)CO2 |  |  | 0.176 | 1.24
COc1ccc(-c2cc(Nc3ccn(C)n3)n3ncc(C#N)c3n2)cc1 | 0.0179 | 2.97 |  | 
Cc1cc(Nc2nc(N[C@@H](C)c3ncc(F)cn3)ncc2C)n[nH]1 | 0.28 | 1.75 |  | 
COc1ccc(C(CN(C)C)C2(O)CCCCC2)cc1 (configuration not stated) [VENLAFAXINE] |  |  | 0.814 | 0.99
CC(=O)N[C@H](C)c1ccc(Nc2ncc3cc(-c4ccncc4)c(C)cc3n2)cc1 | 0.0191 | 3.45 |  | 
Cc1cc(Nc2nc(O[C@@H](C)c3ccc(F)cn3)c(C#N)nc2C)[nH]n1 | 0.0594 | 2.86 |  | 

Compound | fraction unbound at 5 h (in vitro; PPB) | logD (physchem; pH 7.4, LogD7.4) | fraction unbound at 5 h (in vitro) | logD (physchem; pH 7.4)
CN[C@@H](C)C(=O)N[C@H](C(=O)N[C@H]1CCCN(CCc2ccc([N+](=O)[O-])cc2)C1)C(C)(C)C | 0.262 | 1.54 |  | 
C[C@H](Nc1ncc(F)c(Nc2cc(N(C)C)[nH]n2)n1)c1ncc(F)cn1 | 0.22 | 1.98 |  | 
O=C(CSc1nccn(-c2ccc(F)c(F)c2)c1=O)NC1CCCC1 | 0.28 | 2 |  | 
Cc1c(Cl)ccc(OC2CCN(C[C@H](O)CNC(=O)c3c[nH]c(=O)cc3C(F)(F)F)CC2)c1Cl | 0.0335 | 3.14 |  | 
N#Cc1ccc2ccc(=O)n(CCN3CC[C@H](NCc4ccc5c(n4)NC(=O)CO5)[C@H](O)C3)c2c1 | 0.208 | 0.11 |  | 
CC[C@@H](CO)Nc1nc(SCc2ccccc2)nc2nc(N)sc12 | 0.0335 | 2.99 |  | 
COc1cc(OC)c(S(=O)(=O)NCc2ccccc2N2CCC(CC(=O)O)CC2)cc1NC(=O)CCC(=O)O | 0.0872 |  |  | 
C[C@](N)(Cc1ccccc1)c1ccccc1 |  |  | 0.179 | 
COc1cccc(OC)c1OCCNCC1COc2ccccc2O1 (configuration not stated) | 0.024 |  |  | 
CCOc1cc2ncc(C(N)=O)c(Nc3cccc(Cl)c3Cl)c2cc1N1CCN(CCOC)CC1 | 0.0171 |  |  | 
NC1=NC(c2ccc(F)cc2)Cc2ccc(F)cc21 (configuration not stated) | 0.329 |  |  | 
CC(C)Cc1c(C(=O)C(N)=O)c2c(OCC(=O)NS(C)(=O)=O)cccc2n1Cc1ccccc1 |  |  | 0.0251 | 
N#Cc1c(-c2ccc(-c3ccccc3O)cc2)nc2ccncc2c1O | 0.0026 |  |  | 
CCOc1cc2ncc(C(N)=O)c(Nc3cccc(Cl)c3Cl)c2cc1N1CCN(C(=O)CO)CC1 | 0.163 |  |  | 
O=C(CN1CCCC1)N1c2ccccc2Sc2ccc(C(F)(F)F)cc21 | 0.0229 |  |  | 
COc1cc2ncn(-c3cc(OCc4ccccc4S(C)(=O)=O)c(C#N)s3)c2cc1OC [GSK-319347A] | 0.0111 |  |  | 
Cc1nccn1-c1ccc(COc2cc(F)cc(C3(C(N)=O)CCOCC3)c2)cc1 | 0.101 |  |  | 
COc1ccc2ncc(=O)n(CCN3CC[C@@H](NCc4ccc5c(n4)NC(=O)CO5)[C@H](OC)C3)c2c1 | 0.179 |  |  | 
CC(=O)NCc1cccc(C(=O)O)c1 | 0.17 |  |  | 

Compound | fraction unbound at 5 h (in vitro; PPB) | logD (physchem; pH 7.4, LogD7.4) | fraction unbound at 5 h (in vitro) | logD (physchem; pH 7.4)
CCCCCCCC(=O)N[C@@H](CCN)C(=O)N[C@H](C(=O)N[C@@H](CCN)C(=O)N[C@H]1CCNC(=O)[C@H]([C@@H](C)O)NC(=O)[C@H](C)NC(=O)[C@H](CCN)NC(=O)[C@H](CC(C)C)NC(=O)[C@@H](Cc2ccccc2)NC(=O)[C@H](CCN)NC1=O)[C@@H](C)O (HELM PEPTIDE1{[CCCCCCCC(=O)[*:2]].[Dab].T.[Dab].[Dab].[Dab].[dF].L.[Dab].A.T}$PEPTIDE1,PEPTIDE1,5:R3-11:R2$$$V2.0) | 0.132 |  |  | 
CN1CCN(c2ccc3ncc(C(N)=O)c(Nc4cccc(Cl)c4Cl)c3c2)CC1 | 0.0457 |  |  | 
COCCOc1cc2ncc(C(N)=O)c(Nc3cccc(Cl)c3Cl)c2cc1N1CCN(C)CC1 | 0.103 |  |  | 
CC(C)(C)COc1ccc(-n2cc(C(=O)O)cn2)cc1C#N | 0.0224 |  |  | 
Cc1cccc(Oc2cc(S(=O)(=O)N3CCC[C@H](n4cc(C)c(=O)[nH]c4=O)C3)ccc2C(=O)O)c1 | 0.0568 |  |  | 
O=C(O)C(c1ccccc1)N1CCO[C@H](CN2CCC(Oc3ccc(Cl)c(Cl)c3)CC2)C1 (some centres not stated) | 0.0064 |  |  | 
COc1cc2ncc(C(N)=O)c(Nc3ccc(Cl)c(Cl)c3)c2cc1N1CCN(C)CC1 | 0.0358 |  |  | 
COc1ccc2c(c1O)-c1cccc3c1[C@@H](C2)N(C)CC3 [APOCIDEINE] |  |  | 0.062 | 
COc1ccc(-c2cc(O)nc(N)n2)cc1C#N | 0.126 |  |  | 
CC(C)C[C@H](NC(=O)[C@H](Cc1ccccc1)NC(=O)c1cnccn1)B(O)O [BORTEZOMIB] | 0.132 |  |  | 
Cc1cn([C@H]2CCCN(Cc3ccc(C(=O)O)c(Oc4cccc(Cl)c4)c3)C2)c(=O)[nH]c1=O | 0.0268 |  |  | 
O=C(Nc1ccccc1-c1cn2c(CN3CCNCC3)csc2n1)c1cnc2ccccc2n1 | 0.0099 |  |  | 
CC(C)COc1ccc(-c2cc(=O)[nH]c(N)n2)cc1 | 0.0374 |  |  | 
Cc1ccc(-c2cc(C(=O)NCc3cn(C)nc3C)c3cc(Br)ccc3n2)cc1 | 0.0063 |  |  | 
CC(C)COc1ccc(-c2cc(=O)[nH]c(N)n2)cc1C#N | 0.0409 |  |  | 
O=C(CCS(=O)(=O)c1ccc(Br)cc1)Nc1ccc2c(c1)OCO2 |  |  | 0.0119 | 
CCOc1cc2ncc(C(N)=O)c(Nc3ccc(F)cc3F)c2cc1N1CCN(CC)CC1 | 0.0457 |  |  | 
COc1cc(OC)c(S(=O)(=O)N2c3ccccc3CCC2C)cc1NC(=O)COCC(=O)O (configuration not stated) | 0.266 |  |  | 
N=C(N)c1ccc(CNC(=O)C2(NC(=O)[C@H](NCC(=O)O)C3CCCCC3)Cc3ccccc3C2)cc1 | 0.54 |  |  | 
